Results reported in PMC8211464 (Journal of medicinal chemistry, 2021).
Where two headings read alike, the source gives them in different places.

Experiments:
[1] = system: Plasmodium berghei
[2] = system: Pf 3D7; assay type: cell-based; settings: Plasmodium falciparum, 3D7, read-out: Pf3D7 IC50±SD
[3] = system: PfDd2; assay type: cell-based; settings: Plasmodium falciparum, read-out: PfDd2 IC50±SD
[4] = system: FCB WT and FCB KD parasite lines; assay: Potency against FCB lines with different pfmdr1 copy numbers; assay type: cell-based, Plasmodium falciparum; settings: FCB WT (two copies of pfmdr1) versus FCB KD (one functional copy)
[5] = system: HepG2; settings: read-out: HepG2 IC50; cytotoxicity; previously published ref 7 (Leven et al.); cited from earlier work
[6] = system: compound 1-resistant clones Fl2-C4 and Fl3-C3; assay type: cell-based, Plasmodium falciparum; settings: clones Fl2-C4 and Fl3-C3, standard 72 h drug-response assay
[7] = Snapshot in vivo PK, dried blood spots, LC-MS/MS; settings: mouse, po; for k el: ke
[8] = system: Pf_Polδ; assay type: cell-based, Plasmodium falciparum; settings: Pf_Polδ parasites exposed to 45 nM (3 × IC50)
[9] = system: heme detoxification in Pf NF54 trophozoites; assay: Pyridine-based cellular heme fractionation assay; assay type: cell-based, Plasmodium falciparum; settings: Pf NF54, 1.5 to 2.5 × IC50
[10] = system: Pf Dd2 clone B2 (Dd2-B2); assay type: cell-based, Plasmodium falciparum; settings: triplicate flasks of 2 × 10^9 Dd2-B2 parasites, 3× to 5× IC50
[11] = human, 5 h, 1 μM, pH 7.4
[12] = 4 × 30 mg/kg oral, monitored up to 30 days

In the case of `C[C@H]1[C@H](OC(=O)CCC(=O)O)O[C@@H]2O[C@@]3(C)CC[C@H]4[C@H](C)CC[C@@H]1[C@@]24OO3` [AS, artesunate, reference compound], the “cured (number of parasite-free mice on day 30)” value ([1]; 4 × 30 mg/kg oral) is reported as 0/10.
With `CCN(CC)CCCC(C)Nc1ccnc2cc(Cl)ccc12` (centres unmarked) [CQ, Chloroquine] the “cured (number of parasite-free mice on day 30)” value ([1]; 4 × 30 mg/kg oral) was 0/10, the IC50 [2] was 6 ± 2 nM and the IC50 [3] was 230 ± 100 nM.
For `N/C(CC(O)c1cc2c(F)cc(F)cc2c2cc(C(F)(F)F)ccc12)=N\N=C\c1ccc(F)cc1` (centres unmarked) [Compound 1], the “effect of pfmdr1 copy number on sensitivity” value [4] was “the decrease from two to one pfmdr1 copy caused a further sensitization”, the “cured (number of parasite-free mice on day 30)” value ([1]; 4 × 10 mg/kg oral) was 2/3 and the “cured (number of parasite-free mice on day 30)” value ([1]; 4 × 30 mg/kg oral) was 1/3. For the same molecule, the “MSD (mean survival time)” value [1, 12] was 26 days, the “cured (number of parasite-free mice on day 30)” value ([1]; 4 × 50 mg/kg oral) was 1/3 and the IC50 [5] was 27700 nM.
For `COc1ccc(/N=C(\N)CC(O)c2cc3c(F)cc(F)cc3c3cc(C(F)(F)F)ccc23)cc1.Cl` (centres unmarked) [Compound 22, (Z)-3-(1,3-Difluoro-6-(trifluoromethyl)phenanthrene-9-yl)-3-hydroxy-N′-(4-methoxyphenyl)propanimidamide Hydrochloride], the “effect of pfmdr1 copy number on sensitivity” value [4] was “the decrease from two to one pfmdr1 copy caused a further sensitization”, the “shift in IC50 value in compound 1-resistant clones” value [6] was 1.6 fold and the cure rate ([1]; 30 mg/kg once daily oral for 4 consecutive days) was 33%. The cure rate ([1]; 50 mg/kg once daily oral for 4 consecutive days) was 66%, the “MSD (mean survival time)” value ([1]; 4 × 3 mg/kg oral) was “euthanized” and the “cured (number of parasite-free mice on day 30)” value ([1]; 4 × 3 mg/kg oral) was 0/3. The “cured (number of parasite-free mice on day 30)” value ([1]; 4 × 10 mg/kg oral) was 0/3, the “cured (number of parasite-free mice on day 30)” value ([1]; 4 × 30 mg/kg oral) was 1/3 and the “MSD (mean survival time)” value [1, 12] was 28 days. The “cured (number of parasite-free mice on day 30)” value ([1]; 4 × 50 mg/kg oral) was 2/3, the “signs of toxicity during the in vivo studies” value ([1]; mice, oral doses 3-50 mg/kg) was “no obvious signs of toxicity” and the AUC(0-inf) ([7]; 3 mg/kg) was 30 ng·h/mL. For the same molecule, the AUC(0-t) ([7]; 3 mg/kg) was 28.9 ng·h/mL, the half-life ([7]; 3 mg/kg) was 5.49 h and the k el ([7]; 3 mg/kg, single oral dose 3 mg/kg, mouse I) was 3.69e-05 s⁻¹. The k el ([7]; 3 mg/kg, single oral dose 3 mg/kg, mouse II) was 3.51e-05 s⁻¹, the AUC(0-inf) ([7]; 10 mg/kg) was 365 ng·h/mL and the AUC(0-t) ([7]; 10 mg/kg) was 361 ng·h/mL. For the same molecule, the half-life ([7]; 10 mg/kg) was 5.26 h, the k el ([7]; 10 mg/kg, single oral dose 10 mg/kg, mouse I) was 4.66e-05 s⁻¹ and the k el ([7]; 10 mg/kg, single oral dose 10 mg/kg, mouse II) was 3.66e-05 s⁻¹. The AUC(0-inf) ([7]; 30 mg/kg) was 1310 ng·h/mL, the AUC(0-t) ([7]; 30 mg/kg) was 1080 ng·h/mL and the half-life ([7]; 30 mg/kg) was 9.95 h. The k el ([7]; 30 mg/kg, single oral dose 30 mg/kg, mouse I) was 1.94e-05 s⁻¹, the k el ([7]; 30 mg/kg, single oral dose 30 mg/kg, mouse II) was 2.74e-05 s⁻¹ and the “outcome of resistance selection” value [8] was “unable to readily generate resistant parasites”. The “inhibition of hemoglobin degradation” value [9] was “some inhibition of hemoglobin degradation” and the “outcome of resistance selection” value [10] was “no viable parasites after 60 days”.
With `Cl.N/C(CC(O)c1c2ccccc2cc2ccccc12)=N\c1ccc(F)cc1` (centres unmarked) [Compound 23, (Z)-3-(Anthracene-9-yl)-N′-(4-fluorophenyl)-3-hydroxypropanimidamide Hydrochloride] the “cured (number of parasite-free mice on day 30)” value ([1]; 4 × 50 mg/kg oral) was 0/3, the “MSD (mean survival time)” value ([1]; 4 × 50 mg/kg oral, monitored up to 30 days) was “euthanized” and the activity ([1]; 4 × 50 mg/kg oral, parasitemia by FACS on day 4, 50 mg/kg) was 44%.
Molecule `CCCCN(CCCC)CCC(O)c1cc2c(Cl)cc(Cl)cc2c2cc(C(F)(F)F)ccc12` (centres unmarked) [HF, Halofantrine] has a plasma protein binding [11] of 100%.
With `CCCCN(CCCC)CC(O)c1cc(Cl)cc2c1-c1ccc(Cl)cc1/C2=C/c1ccc(Cl)cc1` (centres unmarked) [LUM, Lumefantrine, reference compound] the “cured (number of parasite-free mice on day 30)” value ([1]; 4 × 30 mg/kg oral) was 3/3.
